# Assay results as given in PubChem BioAssay (NCI).
#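 These data come from cells grown in 96-well plates and exposed to compound for 48 hours at five concentrations. TGI: concentration producing complete growth inhibition.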
# Columns and labels:
# Assay in all cases: NCI-60 cell line screen, 48 h
# [1] = test system: MDA-MB-435
# [2] = test system: NCI/ADR-RES ovarian
# [3] = test system: EKVX NSCLC
# [4] = test system: UACC-62 melanoma
# [5] = test system: HL-60(TB) leukemia
# [6] = test system: MDA-N
# [7] = test system: U251 CNS
# [8] = test system: RXF 393 renal
# [9] = test system: RPMI-8226 leukemia
# [10] = test system: SK-MEL-2 melanoma
# [11] = test system: NCI-H522 lung
# [12] = test system: A498 renal
# [13] = test system: IGROV1 ovarian
# [14] = test system: A549 NSCLC
# [15] = test system: HCC-2998 colon
# [16] = test system: HT29 colon
# [17] = test system: SF-295 CNS
# [18] = test system: SW-620 colon
# [19] = test system: T-47D breast
# [20] = test system: SN12C renal
# [21] = test system: PC-3 prostate
# [22] = test system: NCI-H226 lung
# [23] = test system: HOP-62 NSCLC
# [24] = test system: COLO 205 colon
# [25] = test system: UACC-257 melanoma
# [26] = test system: K-562 leukemia
# [27] = test system: TK-10 renal
# [28] = test system: OVCAR-5 ovarian
# [29] = test system: HCT-15 colon
# [30] = test system: 786-0 renal
# [31] = test system: NCI-H23 lung
# [32] = test system: OVCAR-4 ovarian
# [33] = test system: OVCAR-8 ovarian
# [34] = test system: DU-145 prostate
# [35] = test system: NCI-H460 lung
# [36] = test system: SK-MEL-5 melanoma
# [37] = test system: KM12 colon
# [38] = test system: HS 578T breast
# [39] = test system: OVCAR-3 ovarian
# [40] = test system: SK-MEL-28 melanoma
# [41] = test system: SF-268 CNS
# [42] = test system: MCF7 breast
# [43] = test system: ACHN renal
# [44] = test system: M14 melanoma
# [45] = test system: SR leukemia
# [46] = test system: UO-31 renal
# [47] = test system: SNB-75 CNS
# [48] = test system: MDA-MB-231 breast
# [49] = test system: LOX IMVI melanoma
# [50] = test system: SK-OV-3 ovarian
# [51] = test system: HCT-116 colon
# [52] = test system: SF-539 CNS
# [53] = test system: CAKI-1 renal
# [54] = test system: SNB-19 CNS
# [55] = test system: BT-549 breast
smiles,measurement,setting,value
N#Cc1ccc(-n2c3ccccc3c3ccc4c(c32)C(=O)C=CC4=O)cc1,TGI,[1],4.39 µM
same,TGI,[2],53.9 µM
same,TGI,[3],5.58 µM
same,TGI,[4],15.6 µM
same,TGI,[5],> 100 µM
same,TGI,[6],13.1 µM
same,TGI,[7],17.8 µM
same,TGI,[8],5.32 µM
same,TGI,[9],> 100 µM
same,TGI,[10],28.9 µM
same,TGI,[11],1.19 µM
same,TGI,[12],11 µM
same,TGI,[13],16.2 µM
same,TGI,[14],38.4 µM
same,TGI,[15],18.3 µM
same,TGI,[16],5.88 µM
same,TGI,[17],28.2 µM
same,TGI,[18],3.31 µM
same,TGI,[19],> 100 µM
same,TGI,[20],14.2 µM
same,TGI,[21],8.98 µM
same,TGI,[22],> 74.5 µM
same,TGI,[23],30.8 µM
same,TGI,[24],10.5 µM
same,TGI,[25],13.9 µM
same,TGI,[26],> 100 µM
same,TGI,[27],8.83 µM
same,TGI,[28],34.8 µM
same,TGI,[29],16.1 µM
same,TGI,[30],3.16 µM
same,TGI,[31],24.4 µM
same,TGI,[32],13 µM
same,TGI,[33],> 58.7 µM
same,TGI,[34],> 24.7 µM
same,TGI,[35],44.2 µM
same,TGI,[36],12.2 µM
same,TGI,[37],26.5 µM
same,TGI,[38],39.3 µM
same,TGI,[39],11.1 µM
same,TGI,[40],13.1 µM
same,TGI,[41],9.12 µM
same,TGI,[42],8.04 µM
same,TGI,[43],3.01 µM
same,TGI,[44],7.57 µM
same,TGI,[45],6.92 µM
same,TGI,[46],3.02 µM
same,TGI,[47],> 53.3 µM
same,TGI,[48],8.25 µM
same,TGI,[49],> 25.4 µM
same,TGI,[50],27.3 µM
same,TGI,[51],7.19 µM
same,TGI,[52],18.5 µM
same,TGI,[53],2.72 µM
same,TGI,[54],26.6 µM
same,TGI,[55],25.3 µM
